# From patent publication US20030100605A1, “Methods of treating cancer with angiogenesis inhibitors” (priority 2001, published 2003)
# Tests used:
# neuroblastoma cell lines = conditions: first administered ten days after inoculation with two different neuroblastoma cell lines; cited from earlier work
# [1] = cited from earlier work
# [2] = Recovery of peripheral blood counts and marrow cellularity after stem cell rescue; format: in vivo, FVB mice
# Procedure: (§1) Compound (drug). TNP-470 was provided by TAP Pharmaceuticals (Deerfield, Ill.). Prior to use, TNP-470 was reconstituted in sterile saline, aliquoted and stored at −80° C. TNP-470 was used at a dose of 20-100 mg/kg given SQ three times per week beginning at day 0 or at a dose of 10-20 mg/kg/week given by continuous intraperitoneal infusion using an Alzet infusion pump (Alza Co., Palo Alto, Calif.). The continuous TNP-470 infusion began on the day prior to transplant to allow for pump implantation (see below).
# Alzet infusion pump placement. Using sterile technique following anesthesia, a 1 cm midline abdominal incision was made and 14 day Alzet micro-osmotic pumps (0.25 μl/hr, model 1002) containing either TNP-470 or saline were placed intraperitoneally. The peritoneum and skin were then secured separately using 4.0 vicryl suture. The animals were allowed to recover overnight and then subjected to TBI and stem cell infusion on the following day.
# Analysis of engraftment. […] Following cervical dislocation, BM and splenocytes were collected from recipient mice. Analysis was performed after red cell lysis with NH4Cl. For flow cytometric analysis of lymphoid engraftment, Tg IgM expressed only in B cells derived from the donor was detected by antibodies recognizing human IgM (RAHM; Jackson ImmunoResearch, West Grove, Pa.) and mouse CD45R (B220, Pharmingen, Torreyana, Calif.) in a two-color protocol on a FACS Caliber cytometer (Becton-Dickinson, Franklin Lakes, N.J.). Splenocytes from untransplanted Tg− and Tg+ mice provided negative and positive controls, respectively. Lymphoid engraftment was defined as the percentage of lymphoid cells in spleen and BM that were B220/RAHM positive. In addition to flow cytometry, genomic DNA from tail snips, blood, BM, and splenocytes was analyzed by PCR for the presence of the transgene, using a procedure and primers previously reported (15). The transgene was detectable by PCR in all donor-derived cells in the recipient, while the tail snips of Tg− mice provided a negative control. Genomic DNA was also isolated from splenic and peripheral blood T cells. Splenic T cells were isolated using the Cellect T isolation column (Biotex, Edmonton, Canada) according to the manufacturer's protocol. Peripheral blood T cells were sorted on the FACS Vantage (Becton-Dickson) after staining with antibodies recognizing mouse CD3 (Pharmingen). Recovery of peripheral blood counts was also analyzed. Blood was collected from cardiac puncture and placed in EDTA tubes (Becton-Dickson). Analysis was then performed with a HemeVet (CDC Technologies) instrument using mouse-specific parameters. Hemoglobin was measured and white blood cells (WBC) and platelets were enumerated.
# [3] = system: human hematopoietic progenitors; assay: In vitro bone marrow culture, colony formation in methylcellulose; format: cell-based
# Procedure: In vitro bone marrow culture. Light density cells separated by density gradient centrifugation (Lymphocyte Separation Medium, ICN Pharmaceutical, Costa Mesa, Calif.) from normal human BM donors were plated in methylcellulose medium with recombinant cytokines. This medium, MethoCult GF (Stem Cell Technologies, Vancouver, Canada), contains stem cell factor 50 ng/ml, GM-CSF 10 ng/ml, IL-3 10 ng/ml and erythropoietin 3 units/ml. 5×10^4 BM cells/dish were cultured with TNP-470 at concentrations ranging from 1 mcg/ml to […], with duplicate cultures at each dose. The plates were scored after 14 days of culture, enumerating colony-forming unit granulocyte/macrophage (CFU-GM), CFU-mix, CFU-erythrocyte and burst-forming unit erythrocyte (CFU-E and BFU-E).
# Effect of TNP-470 on bone marrow colony-forming cells. Although hematologic toxicity has not been described in the TNP-470 phase I trials (24, 25), there is one report of in vitro evidence of BM toxicity (16). In order to confirm this finding, we investigated the effect of relatively high concentrations of TNP-470 (0-100 μg/ml) on growth of human hematopoietic progenitors in standard methylcellulose culture. […] Although this assay is not necessarily predictive of in vivo BM toxicity, the result emphasizes the need to develop a pre-clinical model of stem cell transplantation to assess the effect of AIs on engraftment.
# [4] = Survival and toxicity after TBI and stem cell rescue in the mouse stem cell transplant model; format: in vivo, FVB mice
# Text: Donors, recipients and preparative regimen. Transgenic mice expressing a human IgM Tg in the FVB background were used as the donor source of bone marrow stem cells for transplantation. The FVB strain of inbred mice is frequently utilized in the generation of transgenic animals. Marrow was collected from Tg+ mice from femurs flushed with sterile PBS. Recipients were FVB mice (Jackson Laboratory, Bar Harbor, Me.) or Tg negative littermates of the Tg positive donors, treated in groups of 5-8 animals/intervention. Recipients received total body irradiation (TBI) in an M38-1 Irradiator (Isomedix) at a dose rate of 2.7 Gy/min in a mixed/split fashion with a 3 hour interfraction interval to allow a higher dose of radiation without significant gastrointestinal toxicity. After completion of TBI, mice received stem cells via tail vein injection. The mice were maintained in a temperature controlled humidified area in autoclaved microisolator cages and fed ad libitum and provided acidified water. Mice were assessed three times weekly after stem cell infusion. These studies were approved by the Animal Care and Use Committee of the Children's Hospital of Philadelphia.
# as §1
# Effect of TNP-470 on engraftment. Several dose levels of TNP-470 were explored to assess any effect on BM engraftment and engraftment kinetics. Immediately following lethal irradiation and tail vein injection of Tg+ BM cells, recipient mice were given either TNP-470 or saline starting on day 0. Dose schedules were also varied from a single dose at the time of stem cell infusion to an initial dose on day 0 followed by administration of TNP-470 or saline 3 times a week (Table 3). Mice were initially sacrificed on days 28-32 at all dose levels. Comparative kinetics were then further analyzed by sacrificing groups of mice at day 21, day 24, and day 28 at dose level 3.
smiles,measurement,setting,value
CO[C@@H]1[C@H](OC(=O)NC(=O)CCl)CC[C@@]2(CO2)[C@H]1[C@]1(C)O[C@@H]1CC=C(C)C [TNP-470],effect on primary tumor and metastases,neuroblastoma cell lines,decreased the primary tumor volume and the size and number of lymph node and liver metastases
same,hematologic toxicity in Phase I trials,[1]; Phase I trials,no significant hematologic toxicity
same,maximal tolerated dose (MTD),"[1]; one-hour intravenous infusions, three times a week, intermittent schedule",60 mg/m^2
same,WBC,[2]; continuous infusion,6300 µL⁻¹
same,hemoglobin or platelet recovery versus control,[2]; continuous infusion 10 mg/kg/week,no significant differences
same,marrow cellularity versus controls,"[2]; day 28, dose level 3, femurs",no difference
same,WBC,"[2]; day 28 post BMT, continuous infusion IP via Alzet pump at 10 mg/kg/wk, mean ± SEM",6.3 ± 0.4 10^3/μL
same,WBC,"[2]; day 28 post BMT, intermittent dosing, dose level 3, SQ three times/wk, mean ± SEM",3.6 ± 0.7 10^3/μL
same,hemoglobin or platelet count versus control,[2]; intermittent (bolus) dosing,No statistical differences
same,mean white blood cell count,[2]; intermittent TNP-470,3600 µL⁻¹
same,inhibition at 4 µg/mL,"[3]; Homo sapiens, 336 h, TNP-470 4 μg/ml, myeloid and erythroid colonies, 14 days culture",> 80%
same,inhibition of colony-forming cells,[3]; higher doses than 4 μg/ml (range 0-100 μg/ml),complete inhibition
same,Overall survival,"[4]; all dose levels, after stem cell rescue",66%
same,survival rate,"[4]; dose level 1 (20 mg/kg on day 0 and then thrice weekly), at completion of the experiment",57%
same,survived to experiment completion,"[4]; dose level 2 (100 mg/kg on day 0 only), day 28-32",71%
same,weight loss,[4]; dose level 4 (100 mg/kg 3×/week),greater weight loss than the control animals
same,skin irritation,"[4]; dose level 4 (100 mg/kg 3×/week), SQ",evidence of skin irritation at the injection sites
